This is an account of results in ChEMBL document CHEMBL4251724, “Ypaoamides B and C, Linear Lipopeptides from an Okeania sp. Marine Cyanobacterium” (J Nat Prod, 2018).

What all share (type): cell-based
The subject of series [1] is L6. As to the kind of experiment: Activation of AMPK in rat L6 cells assessed as glucose uptake after 16 hrs.
Series [2] deals with L6. Description: Cytotoxicity against rat L6 cells assessed as reduction in cell viability at 10 to 40 uM after 16 hrs by MTT assay. As to conditions: l6, 16 h. For orientation: Tetrazolium dyes change colour on reduction, which living cells bring about.
The test system of series [3] is L6. As to the kind of experiment: Activation of AMPK in rat L6 cells assessed as increase in AMPK phosphorylation at 40 uM by Western blot analysis. On the technique in general: Immunoblotting shows a protein as a band on a membrane.
Series [4] deals with L6. As to the kind of experiment: Activation of AMPK in rat L6 cells assessed as glucose uptake at 40 uM in presence of AMPK inhibitor compound C after 8 hrs.

The source made the active and inactive calls. No cut-off for these calls is given here.

As for `CO/C(=C/C(=O)N1C(=O)C=C[C@@H]1C)C/C(=C/Cl)CNC(=O)CCCCC(C)(C)C`, the Activity entry is “Dose-dependent effect” in series [1] and “Non-Toxic” in series [2].

Turning to `CO/C(=C/C(=O)N1C(=O)C=C[C@@H]1CC(C)C)CCNC(=O)CCCCC(C)(C)C`, the Activity result was “Dose-dependent effect” in series [1] and “Non-Toxic” in series [2]. For the same compound, in series [3], the outcome was Active. Further, in series [4], the outcome was inactive.
